Data: patent US20050282819A1, “Heterocyclic substituted indane derivatives and related compounds for the treatment of schizophrenia” (priority 2003, published 2005)

molecular target: T1, dopamine D2 receptor (Homo sapiens, UniProt P14416); assay: Dopamine D2 receptor binding ([3H]spiperone, CHO-hD2L membranes)
T1 construct: expressed in transfected cells; host or cells: CHO cells (CHO-hD2L), membrane preparation
Description: (§1) The ability of the compounds of this invention to bind to the dopamine D2 and serotonin 2A (5HT2A) receptors can be determined using conventional radioligand receptor binding assays. All receptors can be heterologously expressed in cell lines and experiments conducted in membrane preparations from the cell lines using procedures outlined below. IC50 concentrations can be determined by nonlinear regression of concentration-dependent reduction in specific binding. The Cheng-Prussoff equation can be used to convert the IC50 to Ki concentrations.
Dopamine D2 Receptor Binding:
[^3H]Spiperone binding to a membrane preparation from CHO-hD2L cells is carried out in 250 μl of 50 mM Tris-HCl buffer containing 100 mM NaCl, 1 mM MgCl2 and 1% DMSO at pH 7.4. Duplicate samples containing (in order of addition) the test compounds, 0.4 nM [^3H]spiperone and approximately 12 μg protein are incubated for 120 minutes at room temperature. Bound radioligand is separated by rapid filtration under reduced pressure through Whatman GF/B glass fiber filters previously treated with 0.3% polyethyleneimine. Radioactivity retained on the filter is determined by liquid scintillation spectrophotometry.
The title compounds of Examples 1-120 were tested using the above assay, in which specific binding determined in the presence of 1 mM haloperidol was 95%.

T1 sequence (P14416 whole entry): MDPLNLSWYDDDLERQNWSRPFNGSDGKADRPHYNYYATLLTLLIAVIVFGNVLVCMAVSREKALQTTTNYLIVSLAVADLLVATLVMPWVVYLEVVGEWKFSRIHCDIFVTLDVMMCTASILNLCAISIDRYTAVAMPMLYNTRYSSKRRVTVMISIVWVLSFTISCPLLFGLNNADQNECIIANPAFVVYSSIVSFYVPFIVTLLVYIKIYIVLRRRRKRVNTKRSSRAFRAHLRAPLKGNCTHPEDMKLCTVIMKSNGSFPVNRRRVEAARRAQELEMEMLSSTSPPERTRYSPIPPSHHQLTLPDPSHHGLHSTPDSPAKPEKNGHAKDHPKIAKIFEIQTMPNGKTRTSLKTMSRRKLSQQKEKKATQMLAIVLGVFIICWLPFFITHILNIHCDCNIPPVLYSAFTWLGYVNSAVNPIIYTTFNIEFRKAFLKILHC

Q: With `O=C(NC1CCc2ccc(CCN3CCN(c4nsc5ccccc45)CC3)cc21)c1ccno1` (stereo not shown) [Example 58, ISOXAZOLE-5-CARBOXYLIC ACID {6-[2-(4-BENZO[D]ISOTHIAZOL-3-YL-PIPERAZIN-1-YL)-ETHYL]-INDAN-1-YL}-AMIDE] as the compound, how does the Ki read?
A: Its Ki is 3 nM.

Q: Which Ki does the source give for `O=C(Cc1ccoc1)NC1CCc2ccc(CCN3CCN(c4nsc5ccccc45)CC3)cc21` (stereo not shown) [Example 56, N-{6-[2-(4-BENZO[D]ISOTHIAZOL-3-YL-PIPERAZIN-1-YL)-ETHYL]-INDAN-1-YL}-2-FURAN-3-YL-ACETAMIDE] here?
A: Its Ki is 5 nM.

Q: With `CC(=O)N[C@H]1Cc2ccc(CCN3CCN(c4nsc5ccccc45)CC3)cc2C1` [Example 60, (S)(+)-N-{5-[2-(4-BENZO[D]ISOTHIAZOL-3-YL-PIPERAZIN-1-YL)-ETHYL]-INDAN-2-YL}-ACETAMIDE] as the compound, how does the Ki read?
A: The Ki was 9 nM.

molecular target: T2, serotonin 2A (5HT2A) receptor (Homo sapiens, UniProt P28223); assay: Serotonin 2A binding ([3H]ketanserin, Swiss-h5HT2A cell membranes)
T2 construct: expressed in transfected cells; host or cells: Swiss-h5HT2A cells, membranes
Description: as §1
[^3H]Ketanserin binding to Swiss-h5HT2A cell membranes can be carried out in 250 μl of 50 mM Tris-HCl buffer pH 7.4. Duplicate samples containing (in order of addition) test compounds, 1.0 nM [^3H]ketanserin, and approximately 75 μg protein are incubated for 120 minutes at room temperature. Bound radioligand is separated by rapid filtration under reduced pressure through Whatman GF/B glass fiber filters previously treated with 0.3% polyethyleneimine. Radioactivity retained on the filter is determined by liquid scintillation spectrophotometry.

T2 sequence (P28223 whole entry): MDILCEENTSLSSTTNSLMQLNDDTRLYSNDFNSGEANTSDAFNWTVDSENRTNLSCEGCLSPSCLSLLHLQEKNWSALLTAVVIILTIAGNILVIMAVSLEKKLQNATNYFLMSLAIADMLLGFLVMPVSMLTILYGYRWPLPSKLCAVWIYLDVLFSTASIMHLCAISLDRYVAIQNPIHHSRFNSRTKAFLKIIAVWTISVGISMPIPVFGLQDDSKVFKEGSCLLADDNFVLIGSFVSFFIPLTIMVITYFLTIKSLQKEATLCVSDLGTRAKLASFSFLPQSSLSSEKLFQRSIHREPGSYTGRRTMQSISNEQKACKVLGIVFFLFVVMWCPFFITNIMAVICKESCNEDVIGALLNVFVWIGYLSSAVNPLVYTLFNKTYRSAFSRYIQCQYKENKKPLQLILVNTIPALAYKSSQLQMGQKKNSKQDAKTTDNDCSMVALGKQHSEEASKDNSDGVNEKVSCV

Q: For `O=C(NC1CCc2ccc(CCN3CCN(c4nsc5ccccc45)CC3)cc21)c1ccno1` (stereo not shown) [Example 58, ISOXAZOLE-5-CARBOXYLIC ACID {6-[2-(4-BENZO[D]ISOTHIAZOL-3-YL-PIPERAZIN-1-YL)-ETHYL]-INDAN-1-YL}-AMIDE], which Ki is on record?
A: Its Ki is 0.03 nM.

Q: Which Ki does the source give for `O=C(Cc1ccoc1)NC1CCc2ccc(CCN3CCN(c4nsc5ccccc45)CC3)cc21` (stereo not shown) [Example 56, N-{6-[2-(4-BENZO[D]ISOTHIAZOL-3-YL-PIPERAZIN-1-YL)-ETHYL]-INDAN-1-YL}-2-FURAN-3-YL-ACETAMIDE] here?
A: Its Ki is 0.55 nM.

Q: With `CC(=O)N[C@H]1Cc2ccc(CCN3CCN(c4nsc5ccccc45)CC3)cc2C1` [Example 60, (S)(+)-N-{5-[2-(4-BENZO[D]ISOTHIAZOL-3-YL-PIPERAZIN-1-YL)-ETHYL]-INDAN-2-YL}-ACETAMIDE] as the compound, how does the Ki read?
A: The Ki was 0.09 nM.

test system: not given; assay: not given

Q: Which melting point does the source give for `CNC1C(C)(C)c2ccc(CCN3CCN(c4nsc5ccccc45)CC3)cc2C1(C)C.CS(=O)(=O)O` (stereo not shown) here?
A: Its melting point is 200 to 203 °C (dec.).

Q: For `CC1(C)C(=O)C(C)(C)c2cc(CCCN3CCN(c4noc5ccccc45)CC3)ccc21.CS(=O)(=O)O`, which melting point is on record?
A: Its melting point is 200 to 203 °C (dec.).

Q: With `CC1(C)c2ccc(CCN3CCN(c4nsc5ccccc45)CC3)cc2C(C)(C)C1O` (stereo not shown) [Example 83, 5-[2-(4-BENZO[D]ISOTHIAZOL-3-YL-PIPERAZIN-1-YL)-ETHYL]-1,1,3,3-TETRAMETHYL-INDAN-2-OL] as the compound, how does the melting point read?
A: The melting point was 47 to 49 °C.

Q: Which melting point does the source give for `CCNC1Cc2ccc(CCN3CCN(c4nsc5ccccc45)CC3)cc2C1(C)C.CS(=O)(=O)O` (stereo not shown) here?
A: The melting point was 125 to 135 °C.

Q: Which melting point does the source give for `CC(=O)NC1Cc2cc(CCN3CCN(c4nsc5ccccc45)CC3)ccc2C1(C)C` (racemic) [Example 115, N-{5-[2-(4-BENZO[D]ISOTHIAZOL-3-YL-PIPERAZIN-1-YL)-ETHYL]-1,1-DIMETHYL-INDAN-2-YL}-ACETAMIDE] here?
A: The melting point was 58 to 68 °C.

Q: With `CC1(C)C(=O)C(C)(C)c2cc(CCN3CCN(c4nsc5ccccc45)CC3)ccc21` [Example 82, 5-[2-(4-BENZO[D]ISOTHIAZOL-3-YL-PIPERAZIN-1-YL)-ETHYL]-1,1,3,3-TETRAMETHYL-INDAN-2-ONE] as the compound, how does the melting point read?
A: The melting point was 122 to 126 °C.

Q: For `CCNC1Cc2cc(CCN3CCN(c4nsc5ccccc45)CC3)ccc2C1(C)C.CS(=O)(=O)O` (stereo not shown), which melting point is on record?
A: Its melting point is 115 to 125 °C (dec.).

Q: With `CCN(C(C)=O)C1Cc2ccc(CCN3CCN(c4nsc5ccccc45)CC3)cc2C1(C)C.CS(=O)(=O)O` (stereo not shown) as the compound, how does the melting point read?
A: Its melting point is 62 to 72 °C.

Q: Which melting point does the source give for `CC1(C)c2ccc(C(O)CN3CCN(c4n[nH]c5ccccc45)CC3)cc2C(C)(C)C1O` (stereo not shown) [Example 86, 5-{1-HYDROXY-2-[4-(1H-INDAZOL-3-YL)-PIPERAZIN-1-YL]-ETHYL}-1,1,3,3-TETRAMETHYL-INDAN-2-OL] here?
A: The melting point was 104 to 110 °C.

Q: Which melting point does the source give for `CC1(C)c2ccc(C(F)CN3CCN(c4nsc5ccccc45)CC3)cc2C(C)(C)C1O` (stereo not shown) [Example 79, 5-[2-(4-BENZO[D]ISOTHIAZOL-3-YL-PIPERAZIN-1-YL)-1-FLUORO-ETHYL]-1,1,3,3-TETRAMETHYL-INDAN-2-OL] here?
A: Its melting point is 49 to 54 °C.

Q: For `CC1(C)c2ccc(C(O)CN3CCN(c4nsc5ccccc45)CC3)cc2C(C)(C)C1O` (stereo not shown) [Example 80, 5-[2-(4-BENZO[D]ISOTHIAZOL-3-YL-PIPERAZIN-1-YL)-1-HYDROXY-ETHYL]-1,1,3,3-TETRAMETHYL-INDAN-2-OL], which melting point is on record?
A: Its melting point is 88 to 97 °C.

Q: With `CC1(C)C(=O)C(C)(C)c2cc(C(F)CN3CCN(c4nsc5ccccc45)CC3)ccc21` (stereo not shown) [Example 78, 5-[2-(4-BENZO[D]ISOTHIAZOL-3-YL-PIPERAZIN-1-YL)-1-FLUORO-ETHYL]-1,1,3,3-TETRAMETHYL-INDAN-2-ONE] as the compound, how does the melting point read?
A: The melting point was 64 to 73 °C.

Q: With `CC(=O)NC1C(C)(C)c2ccc(CCN3CCN(c4noc5ccccc45)CC3)cc2C1(C)C.CS(=O)(=O)O` (stereo not shown) as the compound, how does the melting point read?
A: Its melting point is 197 to 205 °C.

Q: With `CCN(C(C)=O)C1Cc2cc(CCN3CCN(c4nsc5ccccc45)CC3)ccc2C1(C)C.CS(=O)(=O)O` (stereo not shown) as the compound, how does the melting point read?
A: The melting point was 60 to 70 °C.

Q: With `CC(=O)NC1C(C)(C)c2ccc(CCN3CCN(c4nsc5ccccc45)CC3)cc2C1(C)C` (stereo not shown) [Example 109, N-{5-[2-(4-BENZO[D]ISOTHIAZOL-3-YL-PIPERAZIN-1-YL)-ETHYL]-1,1,3,3-TETRAMETHYL-INDAN-2-YL}-ACETAMIDE] as the compound, how does the melting point read?
A: The melting point was 75 to 80 °C.

Q: For `CC1(C)C(=O)C(C)(C)c2cc(C(O)CN3CCN(c4nsc5ccccc45)CC3)ccc21` (stereo not shown) [Example 77, 5-[2-(4-BENZO[D]ISOTHIAZOL-3-YL-PIPERAZIN-1-YL)-1-HYDROXYETHYL]-1,1,3,3-TETRAMETHYL-INDAN-2-ONE], which melting point is on record?
A: The melting point was 189 to 191 °C.

Q: With `CC1(C)C(=O)C(C)(C)c2cc(CCCN3CCN(c4nsc5ccccc45)CC3)ccc21.CS(=O)(=O)O` as the compound, how does the melting point read?
A: Its melting point is 144 to 147 °C.

Q: With `CC1(C)C(=O)C(C)(C)c2cc(CCN3CCN(c4noc5ccccc45)CC3)ccc21.CS(=O)(=O)O` as the compound, how does the melting point read?
A: The melting point was 259 to 261 °C.

Q: For `CC(=O)NC1Cc2ccc(CCN3CCN(c4nsc5ccccc45)CC3)cc2C1(C)C` (racemic), which melting point is on record?
A: The melting point was 62 to 72 °C.

Q: With `CCOC(CN1CCN(c2noc3ccccc23)CC1)c1ccc2c(c1)C(C)(C)C(=O)C2(C)C.CS(=O)(=O)O` (stereo not shown) as the compound, how does the melting point read?
A: Its melting point is 219 to 222 °C.

Q: For `CNC(CN1CCN(c2nsc3ccccc23)CC1)c1ccc2c(c1)C(C)(C)C(O)C2(C)C` (stereo not shown) [Example 85, 5-[2-(4-BENZO[D]ISOTHIAZOL-3-YL-PIPERAZIN-1-YL)-1-METHYLAMINO-ETHYL]-1,1,3,3-TETRAMETHYL-INDAN-2-OL], which melting point is on record?
A: Its melting point is 96 to 101 °C.

Q: Which melting point does the source give for `CC(=O)N(C)C1C(C)(C)c2ccc(CCN3CCN(c4nsc5ccccc45)CC3)cc2C1(C)C.CS(=O)(=O)O` (stereo not shown) here?
A: The melting point was 248 to 250 °C.
